Experimental data as given in PMC8424629, “Chemical “Butterfly Effect” Explaining the Coordination Chemistry and Antimicrobial Properties of Clavanin Complexes” (Inorganic Chemistry, 2021).
Where no end group is shown, it is not given here.

Assays:
[1] = test system: Staphylococcus spp. (for S. aureus); design: method as in earlier work; details: EUCAST/2021/01/01, ref 22 (SI), cited from earlier work; for MIC breakpoints R>: resistant breakpoint; for MIC breakpoints S≤: susceptible breakpoint
[2] = test system: Enterococcus spp. (for E. faecalis); design: method as in earlier work; details: EUCAST/2021/01/01, ref 22 (SI), cited from earlier work; for MIC breakpoints R>: resistant breakpoint; for MIC breakpoints S≤: susceptible breakpoint
[3] = test system: Enterobacterales (for E. coli); design: method as in earlier work; details: EUCAST/2021/01/01, ref 22 (SI), cited from earlier work; for MIC breakpoints R>: resistant breakpoint; for MIC breakpoints S≤: susceptible breakpoint
[4] = type: binding
Protocol: (§1) All peptides ([…]-COOH, […]-COOH, […]
(§2) were purchased from KareBay Biochem (USA) (certified purity: 98 %) and were used as received.
(§3) The carbonate-free stock solutions of 0.1 M NaOH were purchased from Sigma-Aldrich and then potentiometrically standardized with the primary standard potassium hydrogen phthalate (99.9 % purity). […]
(§4) Stability constants for proton, Zn(II) and Cu(II) complexes were calculated from pH -metric titration curves carried out over the pH range 2-11 at T = 298 K in water solution of 4 mM HClO 4 and ionic strength 40 mM (SDS), using a total volume of 3 ml. The potentiometric titrations were performed using a Metrohm Titrando 905 titrator and a Mettler Toledo InLab Micro comb ined pH electrode. The thermostabilized glass -cell was equipped with a magnetic stirring system, a microburette delivery tube and an inlet –outlet tube for argon.
(§5) Solutions were titrated with 0.1 M carbonate-free NaOH. The electrodes were calibrated daily f or hydrogen ion concentration by titrating HClO 4 with NaOH under the same experimental conditions as above. The purities and the exact concentrations of the ligand solutions were determined by the Gran method. 1 The ligand concentration was 0.5 mM. The Zn(II) and Cu(II) to ligand ratio was 1 : 1.
(§6) The standard potential and the slope of the electrode couple were computed by means of Glee 2 program. The HYPERQUAD 20063 program was used for the stability constant calculations. The standard deviations were computed by HYPERQUAD 2006 and refer to random errors only. The constants for the hydrolytic Zn(II ) species

[5] = test system: Candida albicans ATCC 10231; details: ATCC 10231, 24 h
[6] = type: physicochemical; details: for log β H2L / log β H3L / log β H4L / log β H5L / log β H6L / log β HL: potentiometry pH 2-11, 298 K, 4 mM HClO4, I = 40 mM SDS, ligand 0.5 mM, SD in parentheses
Protocol: as §1, §2, §3, §4, §5, §6

[7] = potentiometry, 298 K, I = 40 mM SDS, Cu(II):L 1:1, 0.5 mM, SD in parentheses
[8] = potentiometry, 298 K, I = 40 mM SDS, Zn(II):L 1:1, 0.5 mM, SD in parentheses

## NCC[C@H](O)C(=O)N[C@@H]1C[C@H](N)[C@@H](O[C@H]2O[C@H](CN)[C@@H](O)[C@H](O)[C@H]2O)[C@H](O)[C@H]1O[C@H]1O[C@H](CO)[C@@H](O)[C@H](N)[C@H]1O [Amikacin]
[1]
  MIC breakpoints R>: > 8 µg/mL
  MIC breakpoints S≤: ≤ 8 µg/mL

## CC1(C)S[C@@H]2[C@H](NC(=O)[C@H](N)c3ccc(O)cc3)C(=O)N2[C@H]1C(=O)O [Amoxicillin]
[2]
  MIC breakpoints R>: > 8 µg/mL
  MIC breakpoints S≤: ≤ 4 µg/mL

## CC1(C)S[C@@H]2[C@H](NC(=O)[C@H](N)c3ccccc3)C(=O)N2[C@H]1C(=O)O [Ampicillin]
[2]
  MIC breakpoints R>: > 8 µg/mL
  MIC breakpoints S≤: ≤ 4 µg/mL

## CC1=C(C(=O)O)N2C(=O)[C@@H](NC(=O)[C@H](N)c3ccc(O)cc3)[C@H]2SC1 [Cefadroxil]
[3]
  MIC breakpoints R>: > 16 µg/mL
  MIC breakpoints S≤: ≤ 16 µg/mL

## CC1=C(C(=O)O)N2C(=O)[C@@H](NC(=O)[C@H](N)c3ccccc3)[C@H]2SC1 [Cefalexin]
[3]
  MIC breakpoints R>: > 16 µg/mL
  MIC breakpoints S≤: ≤ 16 µg/mL

## O=C(N[C@H](CO)[C@H](O)c1ccc([N+](=O)[O-])cc1)C(Cl)Cl [Chloramphenicol]
[1]
  MIC breakpoints R>: > 8 µg/mL
  MIC breakpoints S≤: ≤ 8 µg/mL

## C[C@@H]1O[C@@H]1P(=O)(O)O [Fosfomycin iv, Fosfomycin]
[1]
  MIC breakpoints R>: > 32 µg/mL
  MIC breakpoints S≤: ≤ 32 µg/mL
[3]
  MIC breakpoints R>: > 32 µg/mL
  MIC breakpoints S≤: ≤ 32 µg/mL

## O=C1CN(/N=C/c2ccc([N+](=O)[O-])o2)C(=O)N1 [Nitrofurantoin]
[2]
  MIC breakpoints R>: > 64 µg/mL
  MIC breakpoints S≤: ≤ 64 µg/mL
[1]
  MIC breakpoints R>: > 64 µg/mL
  MIC breakpoints S≤: ≤ 64 µg/mL
[3]
  MIC breakpoints R>: > 64 µg/mL
  MIC breakpoints S≤: ≤ 64 µg/mL

## O=[N+]([O-])c1ccc(O)c2ncccc12 [Nitroxoline]
[3]
  MIC breakpoints R>: > 16 µg/mL
  MIC breakpoints S≤: ≤ 16 µg/mL

## CCN1CCN(C(=O)N[C@@H](C(=O)N[C@@H]2C(=O)N3[C@@H]2SC(C)(C)[C@@H]3C(=O)O)c2ccccc2)C(=O)C1=O [Piperacillin]
[3]
  MIC breakpoints R>: > 8 µg/mL
  MIC breakpoints S≤: ≤ 8 µg/mL

## CC1(C)S[C@@H]2[C@H](NC(=O)[C@H](C(=O)O)c3ccsc3)C(=O)N2[C@H]1C(=O)O [Ticarcillin]
[3]
  MIC breakpoints R>: > 16 µg/mL
  MIC breakpoints S≤: ≤ 8 µg/mL

## H-LFKLLGKIIHHVGNFVHGFSHVF-OH [Clavanin E]
[4]
  pKa, line CuH2L: 6.90
  pKa, line CuH3L: 5.96
  pKa, line CuH4L: 5.16
  pKa, line CuH-1L: 8.78
  pKa, line CuH-2L: 10.05
  pKa, line CuH-3L: 10.37
  pKa, line CuHL: 7.72
  pKa, line CuL: 8.81
  pKa, line ZnH2L: 7.18
  pKa, line ZnHL: 8.62
  pKa, line ZnL: 9.77
[4]; [7]
  log β CuH2L: 29.52 (3)
  log β CuH3L: 36.42 (3)
  log β CuH4L: 42.38 (2)
  log β CuH5L: 47.54 (3)
  log β CuH-1L: 4.21 (4)
  log β CuH-2L: -5.84 (4)
  log β CuH-3L: -16.21 (5)
  log β CuHL: 21.80 (3)
  log β CuL: 12.99 (4)
[4]; [8]
  log β ZnH2L: 25.12 (5)
  log β ZnH3L: 32.30 (11)
  log β ZnHL: 16.50 (6)
  log β ZnL: 6.73
[5]
  MIC: 32 µg/mL
[6]
  pKa, species H2L: 9.19
  pKa, species H3L: 8.29
  pKa, species H4L: 7.82
  pKa, species H5L: 7.30
  pKa, species H6L: 5.55
  pKa, species HL: 10.77
  log β H2L: 19.96 (3)
  log β H3L: 28.25 (3)
  log β H4L: 36.07 (3)
  log β H5L: 43.37 (3)
  log β H6L: 48.92 (4)
  log β HL: 10.77 (2)

## H-VFQFLGRIIHHVGNFVHGFSHVF-OH [Clavanin B]
[4]; [7]
  log β CuH2L: 28.72 (3)
  log β CuH3L: 35.57 (2)
  log β CuH4L: 41.57 (3)
  log β CuH-1L: 2.96 (3)
  log β CuH-2L: -7.17 (3)
  log β CuH-3L: -18.46 (4)
  log β CuHL: 21.00 (3)
  log β CuL: 12.37 (3)
[4]; [8]
  log β ZnH2L: 25.24 (2)
  log β ZnH3L: 32.61 (2)
  log β ZnH4L: 39.23 (7)
  log β ZnHL: 16.85 (1)
  log β ZnL: 6.53 (7)
[6]
  log β H2L: 20.21 (2)
  log β H3L: 28.47 (2)
  log β H4L: 36.26 (2)
  log β H5L: 43.35 (2)
  log β H6L: 48.47 (2)
  log β HL: 11.17 (1)

## VFQFLGRIIHHVGNFVHGFSHVF [Clavanin B]
[4]
  pKa, line CuH2L: 6.86
  pKa, line CuH3L: 5.99
  pKa, line CuH-1L: 9.40
  pKa, line CuH-2L: 10.14
  pKa, line CuH-3L: 11.28
  pKa, line CuHL: 7.71
  pKa, line CuL: 8.64
  pKa, line ZnH2L: 7.37
  pKa, line ZnH3L: 6.62
  pKa, line ZnHL: 8.39
  pKa, line ZnL: 10.32
[6]
  pKa, species H2L: 9.04
  pKa, species H3L: 8.26
  pKa, species H4L: 7.79
  pKa, species H5L: 7.09
  pKa, species H6L: 5.12
  pKa, species HL: 11.17
